Common to all, as to assay: ITC direct binding
Parameters in all cases: species or system A. thaliana

The target in one test is T1, FAMA (Arabidopsis thaliana, UniProt Q56YJ8).
T1 construct: ΔNFAMA (190-414); made in house; host or cells: E. coli BL21

The target of a further test is T2, FAMA_ACTL (Arabidopsis thaliana, UniProt Q56YJ8).
T2 construct: FAMA-ACTL (306-414); GST (N, cleaved yes); made in house; host or cells: E. coli BL21

The target in a further test is T3, MUTE (Arabidopsis thaliana, UniProt Q9M8K6).
T3 construct: MUTE (1-202); made in house; host or cells: E. coli BL21
T3 sequence (Q9M8K6 whole entry): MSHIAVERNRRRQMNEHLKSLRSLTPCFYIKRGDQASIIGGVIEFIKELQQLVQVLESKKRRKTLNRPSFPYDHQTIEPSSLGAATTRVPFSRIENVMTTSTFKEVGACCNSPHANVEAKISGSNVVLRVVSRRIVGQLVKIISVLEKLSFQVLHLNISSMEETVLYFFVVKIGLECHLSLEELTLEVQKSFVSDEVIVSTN

The target in the next test is T4, SCRM (Arabidopsis thaliana, UniProt Q9LSE2).
T4 construct: SCRM (1-494); made in house; host or cells: E. coli BL21
T4 sequence (Q9LSE2 1-494): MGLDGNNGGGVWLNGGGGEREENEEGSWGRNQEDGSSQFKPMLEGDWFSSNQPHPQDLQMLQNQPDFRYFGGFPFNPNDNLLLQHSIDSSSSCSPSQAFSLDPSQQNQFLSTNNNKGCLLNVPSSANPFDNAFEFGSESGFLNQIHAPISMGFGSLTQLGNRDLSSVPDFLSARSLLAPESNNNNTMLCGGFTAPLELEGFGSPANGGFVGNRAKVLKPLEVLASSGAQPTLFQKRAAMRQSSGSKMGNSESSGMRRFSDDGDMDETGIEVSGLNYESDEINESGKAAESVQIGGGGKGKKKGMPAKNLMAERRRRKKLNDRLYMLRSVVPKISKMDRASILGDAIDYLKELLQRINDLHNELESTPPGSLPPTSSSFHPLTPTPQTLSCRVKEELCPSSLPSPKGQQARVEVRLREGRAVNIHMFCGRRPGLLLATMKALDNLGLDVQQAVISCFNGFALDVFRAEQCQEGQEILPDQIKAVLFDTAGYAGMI

The target of the next test is T5, SCRM_ACTL (Arabidopsis thaliana, UniProt Q9LSE2).
T5 construct: SCRM-ACTL (405-494); GST (N, cleaved yes); made in house; host or cells: E. coli BL21
T5 sequence (Q9LSE2 405-494): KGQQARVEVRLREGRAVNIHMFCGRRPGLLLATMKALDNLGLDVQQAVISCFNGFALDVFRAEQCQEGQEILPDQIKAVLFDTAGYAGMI

Another test has as its target T6, SPCH (Arabidopsis thaliana, UniProt Q700C7).
T6 construct: ΔNSPCH (98-364); made in house; host or cells: E. coli BL21

T6 sequence (Q700C7 98-364): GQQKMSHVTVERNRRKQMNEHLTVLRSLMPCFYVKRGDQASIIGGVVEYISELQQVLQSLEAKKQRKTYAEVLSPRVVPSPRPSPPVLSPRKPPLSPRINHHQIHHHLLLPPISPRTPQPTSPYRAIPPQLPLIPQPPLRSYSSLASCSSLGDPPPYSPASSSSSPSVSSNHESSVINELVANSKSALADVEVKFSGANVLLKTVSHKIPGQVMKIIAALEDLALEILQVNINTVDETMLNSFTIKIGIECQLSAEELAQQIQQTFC
T2 sequence (Q56YJ8 306-414): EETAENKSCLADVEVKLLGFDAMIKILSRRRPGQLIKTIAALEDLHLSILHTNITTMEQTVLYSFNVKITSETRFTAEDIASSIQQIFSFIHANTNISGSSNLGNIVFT
T1 sequence (Q56YJ8 190-414): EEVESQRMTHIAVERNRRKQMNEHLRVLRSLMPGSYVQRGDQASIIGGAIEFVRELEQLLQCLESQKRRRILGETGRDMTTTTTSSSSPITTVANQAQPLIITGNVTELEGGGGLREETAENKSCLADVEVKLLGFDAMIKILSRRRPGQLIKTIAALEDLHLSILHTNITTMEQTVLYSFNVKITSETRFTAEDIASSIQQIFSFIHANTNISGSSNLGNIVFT

For the compound `O=C1C(c2ccccc2)=NC(NS(=O)(=O)c2ccccc2)(c2ccccc2)N1S(=O)(=O)c1ccccc1` (centres unmarked) [Stomidazolone], the “-T△S” value at FAMA is recorded as 2.4 ± 0.3; on FAMA_ACTL, 4.8 ± 0.2; on MUTE, 17.3 ± 0.4; at SCRM it was 4.1 ± 0.2; on SCRM_ACTL, 6.1 ± 0.2; at SPCH, 3.6 ± 0.2. Moreover, the Kd was found to be 80.4 ± 4.1 µM at FAMA; 110 ± 13.8 µM on FAMA_ACTL; 7.8 ± 1.1 µM on MUTE; 71.5 ± 5.1 µM at SCRM; 78.4 ± 5.1 µM at SCRM_ACTL; 79.6 ± 3.6 µM on SPCH. Moreover, the “△G” value at FAMA is given as -1.8 ± 0.2; on MUTE it was -3.3 ± 0.2; on SCRM it was -4.8 ± 0.2; on SCRM_ACTL it was -3.2 ± 0.2; at SPCH, -2.6 ± 0.2. For the same compound, the “△H” value is on record as -4.2 ± 0.2 at FAMA; -8.2 ± 0.5 at FAMA_ACTL; -20.6 ± 0.4 on MUTE; -8.9 ± 0.2 on SCRM; -9.3 ± 0.4 at SCRM_ACTL; -6.2 ± 0.5 on SPCH.

The Kd is the constant that tells how readily two partners part at equilibrium.
